In US20140161891A1, “COMPOSITION OF PI3K INHIBITOR AND USE THEREOF” (priority 2012, published 2014):

Tests used:
[1] = test system: four types of lung cancer cell strains (AS2, H157, H460, H1650); test: MTT cell activity test, four cell strains together; type: cell-based; conditions: 48 hours
Text: To measure the ionized LY, PLAG nanoparticles (SF-NPs), and SF-LY NPs, PLGA NPs are applied to four selected types of lung cancer cell strains including AS2 (PTEN null), H157 (PI3KCA, PTEN null), H460 (PI3KCA) and H1650 (PTEN null) in this preferred embodiment, and different concentrations are used to process the ionized LY or SF-LY NPs and a MTT testing method is used to measure the cell activity, and the experiment procedure is described in details as follows:
The cells are inoculated in 96-hole culture boards (each hole has 5×10^3 cells) and cultured by 5% of CO2 at 37[…] till the next day. In four types of different cells, different doses of SF NPs, LY or SF-LY NPs are added and processed for 48 hours, and then a stock solution (with a content of 5 mg/ml in PBS) of a MTT agent at 37° C. is added to the 96-hole culture boards containing different processing drugs and wait for 4 fours before centrifuging the culture boards at 1200 rpm for 5 minutes, and after adding DMSO (capable of dissolving and precipitating products produced by the reaction of MTT and cells) for 5 minutes, the suspension is moved to a new ELISA board, and an ELISA reader (Varioskan, Thermo Electron) is used to measure the light absorption by 490 nm. […]

[2] = test system: H157 (PI3KCA, PTEN null) lung cancer cell strain; test: MTT cell activity test; type: cell-based; conditions: H157, higher dosage, 48 hours
Text: To measure the ionized LY, PLAG nanoparticles (SF-NPs), and SF-LY NPs, PLGA NPs are applied to four selected types of lung cancer cell strains including AS2 (PTEN null), H157 (PI3KCA, PTEN null), H460 (PI3KCA) and H1650 (PTEN null) in this preferred embodiment, and different concentrations are used to process the ionized LY or SF-LY NPs and a MTT testing method is used to measure the cell activity, and the experiment procedure is described in details as follows: The cells are inoculated in 96-hole culture boards (each hole has 5×10^3 cells) and cultured by 5% of CO2 at 37[…] till the next day. In four types of different cells, different doses of SF NPs, LY or SF-LY NPs are added and processed for 48 hours, and then a stock solution (with a content of 5 mg/ml in PBS) of a MTT agent at 37° C. is added to the 96-hole culture boards containing different processing drugs and wait for 4 fours before centrifuging the culture boards at 1200 rpm for 5 minutes, and after adding DMSO (capable of dissolving and precipitating products produced by the reaction of MTT and cells) for 5 minutes, the suspension is moved to a new ELISA board, and an ELISA reader (Varioskan, Thermo Electron) is used to measure the light absorption by 490 nm.

PC14PE6/AS2 cells tumor = test: AS2 tumor model in nude mice, injection in the tumor; type: in vivo, Balb/c female nude mice; conditions: 1 mg/kg, injected in the tumor three times a week for two weeks
Experimental: Balb/c female nude mice were obtained from National Laboratory Animal Center, Taiwan. Mice of 6˜8 weeks old are used. The mice are randomly divided into four groups, and situated in the same environment with controlled tempeature, humidity and 12 h-light/dark cycle, and the controlled environmental conditions follows the environmental conditions for animal breeding set forth by National Cheng Kung University. The balb/c immunodeficient mice are innoculated with PC14PE6/AS2 cells (1×10^6 cells/1004 of PBS) by the subcutaneous inoculation method. If the tumor size is approximately equal to 50-60 cubic millimeters, the experiment starts taking place. […] The tumor size is measured by a caliper and a standard tumor volume measurement method (Volume=Long Axis×Short Axis^2×0.5). […]
After the procedure as shown in FIG. 5 takes place, the body weight of the mice is measured in every two other days to check whether there is a loss of weight. […] The survival rate is determined by the number of days when a natural death of each group of mice occurs or the tumor reaches a size of 4000 mm^3.

## O=c1cc(N2CCOCC2)oc2c(-c3ccccc3)cccc12 [LY294002, 2-(4-Morpholinyl)-8-phenyl-4H-1-benzopyran-4-one]
[1]
  toxicity of the cells: slight toxicity
[2]
  toxicity to H157 cells: slight toxicity
PC14PE6/AS2 cells tumor
  growth of tumors: insufficient to reduce the growth of tumors
PC14PE6/AS2 cells tumor; after 12˜14 days
  tumor size increase relative to start: approximately 40 times
